Data taken from patent US20090142364A1, “Method for finding novel peptide immunostimulatory adjuvants, compositions and methods of use” (priority 2007, published 2009).
Where a SMILES comes first, the peptide text is derived from it. [ ]: non-standard residue; d: D form.

Tests used:
[1] = system: mAb E6/1.2; details: cited from earlier work
[2] = system: Balb/c mice peritoneal mononuclear cells (PMC); experiment: Ia-antigen-inducing effect, flow cytometry, peritoneal mononuclear cells; format: cell-based, mouse
Procedure: (§1) We studied the Ia-antigen-inducing activity of RN-peptide by stimulation in vitro of murine peritoneal macrophages. Flow cytometry was used to assess Ia-antigen expression. […] The pyrogenicity of the peptide was studied in Wistar rats. […] The dynamics of alteration of rectal temperature were monitored during 2.5 h.
Balb/c mice peritoneal mononuclear cells (PMC) were isolated by Histopaque density gradient centrifugation. PMC or WEHI-3 cells were incubated with RN-peptide (0.1-10 μg/ml) or GMDP (positive control) or saline (negative control) in RPMI 1640 medium, supplemented with 5% fetal calf serum upon rotary mixing for 18 h at 37° C. Cells were stained on ice bath with MKD6 anti-Ia^d mAb (supernatant from the in vitro culture, 1:10 dilution) and FITC-labeled anti-mouse immunoglobulin (Sigma, USA, 1:300 dilution), and then with phycoerythrin-labeled F4/80 mAb (Caltag, USA, 0.2 μg/100 μl). Ia antigen expression was assessed by flow cytometry using EPICS “Elite” (Coulter, USA).

[3] = system: antibody response to ovalbumin; experiment: Adjuvant activity: antibody response to ovalbumin in mice, titer by solid-phase ELISA; format: in vivo, Balb/c mice; details: for Adjuvant index / Anti-ovalbumin antibody titer: i.p.
Procedure: To study the adjuvant activity of RN-peptide, Balb/c mice were immunized with ovalbumin in saline in the presence of the RN-peptide, its analogs or GMDP, or without any adjuvant (control). The adjuvant was introduced on first immunization, whereas second immunization was carried out with half dose of OVA without adjuvant.
Adjuvant activity. Groups of 5 Balb/c mice were administered i.p. with 2.5-10 μg ovalbumin (Sigma, USA) per mouse in 200 μl PBS. RN-peptide (0.1-100 μg) or GMDP (1-100 μg) was introduced simultaneously with ovalbumin on first immunization. The second immunization was carried out 28 days later with half dose of ovalbumin (1.25-5.0 μg/200 μl) without adjuvant. Control mice received ovalbumin twice without adjuvant. Three days after the second immunization mice were bled from the tail vein. […] Control mice received polysaccharide without any adjuvant. Five and ten days after immunization mice were bled.
The antibody titer was evaluated by solid-phase ELISA as described by Douillard and Hoffman (1983) Enzyme-linked immunosorbent assay for screening monoclonal antibody production using enzyme-labeled second antibody. The antigen (ovalbumin or polysaccharide), 5 μg/ml in bicarbonate buffer, pH 8.6 (100 μl), was introduced into wells of 96-well microtiter plate. Incubation was carried out overnight at 4° C. The plate was washed 5 times with PBS and 5 times with PBS/0.1% Tween-20 (PBS-T). Remaining binding sites were blocked with 1% gelatin in PBS (2 h, room temperature). After washing 100 μl of mouse serum (1:100 dilution) was added, and serial three-fold dilutions were made. Bound antibodies were visualized by incubation with Horse-Radish-Peroxidase (HRP)-conjugated rabbit anti-mouse antibodies and OPD as the chromogenic substrate.

[4] = rat, in vivo, ip
Procedure: as §1
The pyrogenic effect SPF female Wistar rats were injected i.p. with a peptide (1.01 mg/kg; 5.74×10^−7 mole/kg) in PBS or with equal dose of GMDP (0.4 mg/kg; 5.74×10^−7 mole/kg). Rectal temperature was recorded every 5 minutes for 160 minutes using PowerLabe/4sp system with an electronic thermometer (MLT1403 Rectal Probe for Rats, AD Instruments USA). All data were quantified (mean±SEM) and compared by the variance analysis.

[5] = system: E. coli strain TG-1; experiment: Survival of Balb/c mice infected with E. coli strain TG-1; format: in vivo, mouse; details: 2 ng i.p., 6 mice at 0 h
Procedure: Groups of Balb/c mice (20-22 g) were administered i.p. with RN-peptide, or GMDP, or saline (control), and then infected i.p. with E. coli strain TG-1 cells. Two doses of E. coli cells were used—1×10^8 (LD50) and 2×10^8 (LD100). Mice were infected one day (experiment A) or seven days (experiment B) after injection of the immunomodulator. Survival of mice was assessed during three days. Results showing that RN-peptide protects mice from lethal doses of E. coli infections (Table 4).

[6] = adjuvant 1 μg, ovalbumin 10 μg then 5 μg
[7] = adjuvant 10 μg, ovalbumin 2.5 μg then 1.25 μg
[8] = adjuvant 10 μg, ovalbumin 10 μg then 5 μg
[9] = adjuvant 100 μg, ovalbumin 10 μg then 5 μg
[10] = Experiment A (infected one day after injection), 1 × 10^8 E. coli cells (LD50)
[11] = Experiment A (infected one day after injection), 2 × 10^8 E. coli cells (LD100)
[12] = Experiment B (infected seven days after injection), 1 × 10^8 E. coli cells (LD50)
[13] = Experiment B (infected seven days after injection), 2 × 10^8 E. coli cells (LD100)

Which “inhibition of binding of GMDP to E6/1.2 mAb” value [1] does the source give for C[C@H](N)C(=O)N[C@H](CCC(=O)O)C(N)=O [Ala-D-iGln] (H-Ala-[dE]-NH2) here?
Its value is “not”.

What does the source list for CC(=O)N[C@H]1[C@H](O[C@H]2[C@H](O[C@H](C)C(=O)N[C@@H](C)C(=O)N[C@H](CCC(=O)O)C(N)=O)[C@@H](NC(C)=O)C(O)O[C@@H]2CO)O[C@H](CO)[C@@H](O)[C@@H]1O (stereo partly drawn) [GMDP, N-acetylglucosaminyl-β1-4-N-acetylmuramyl-alanyl-D-isoglutamine, reference compound]?
concentration of peak (optimal) Ia-antigen response ([2]; 18 h incubation): 10 µg/mL; increase in Ia-positive cell number ([2]; at optimal dose, overnight treatment): 10%; optimal dose for Ia-positive cell increase ([2]; overnight treatment): 10 µg; Adjuvant index [3, 6]: 0.7 ± 0.03; Anti-ovalbumin antibody titer [3, 6]: 4000 ± 150; Adjuvant index [3, 7]: 2.37 ± 0.06; Anti-ovalbumin antibody titer [3, 7]: 5800 ± 150; Adjuvant index [3, 8]: 1.3 ± 0.03; Anti-ovalbumin antibody titer [3, 8]: 7900 ± 200; Adjuvant index [3, 9]: 10.8 ± 0.08; Anti-ovalbumin antibody titer [3, 9]: 64800 ± 500; increase in body temperature [4]: 2.0-4.0%; Number of survivors [5, 10]: 2; surviving mice, 24 hours after infection [5, 10]: 2; surviving mice, 28 hours after infection [5, 10]: 2; surviving mice, 72 hours after infection [5, 10]: 2; Number of survivors [5, 11]: 1; surviving mice, 24 hours after infection [5, 11]: 2; surviving mice, 28 hours after infection [5, 11]: 2; surviving mice, 72 hours after infection [5, 11]: 1; Number of survivors [5, 12]: 2; surviving mice, 24 hours after infection [5, 12]: 5; surviving mice, 28 hours after infection [5, 12]: 2; surviving mice, 72 hours after infection [5, 12]: 2; Number of survivors [5, 13]: 0; surviving mice, 24 hours after infection [5, 13]: 3; surviving mice, 28 hours after infection [5, 13]: 2; surviving mice, 72 hours after infection [5, 13]: 0

For CC(=O)N[C@H]1[C@H](O[C@H]2[C@H](O[C@H](C)C(=O)O)[C@@H](NC(C)=O)C(O)O[C@@H]2CO)O[C@H](CO)[C@@H](O)[C@@H]1O (stereo partly drawn) [GlcNAc-β(1-4)-MurNAc], which “inhibition of binding of GMDP to E6/1.2 mAb” value [1] is on record?
Its value is “could be inhibited by high concentration”.

For CC(=O)NC1C(OC2C(CO)OC(O)C(NC(C)=O)C2OC(C)C(=O)NC(C)C(=O)NC(CCC(=O)O)C(N)=O)OC(CO)C(O)C1O (stereo not drawn) [LL-GMDP], which “binding of mAb E6/1.2” value ([1]; compared with GMDP) is on record?
The value was “bind equally well”.

For “R-H-peptide: 7-mer, RN-peptide truncated from C-terminus (SEQ ID NO: 10); truncated heptapeptide (RVPPRYH)”, which Adjuvant index [3, 6] is on record?
Its Adjuvant index is 0.7 ± 0.03.

And the Anti-ovalbumin antibody titer [3, 6]?
Its Anti-ovalbumin antibody titer is 4000.

And the Adjuvant index [3, 8]?
Its Adjuvant index is 2.3 ± 0.05.

And the Anti-ovalbumin antibody titer [3, 8]?
The Anti-ovalbumin antibody titer was 13900.

What about the Adjuvant index [3, 9] of the same compound?
Its Adjuvant index is 8.6 ± 0.09.

What about the Anti-ovalbumin antibody titer [3, 9] of the same compound?
The Anti-ovalbumin antibody titer was 51900.

And the “dose required for maximal effect relative to RN-peptide” value ([3]; mouse, in vivo)?
Its value is 100 times.

Which Adjuvant index [3, 6] does the source give for “R-I-peptide: 10-mer, RN-peptide truncated from C-terminus (SEQ ID NO: 9) (RVPPRYHAKI)” here?
The Adjuvant index was 6.3 ± 0.06.

What about the Anti-ovalbumin antibody titer [3, 6] of the same compound?
The Anti-ovalbumin antibody titer was 24000.

And the Adjuvant index [3, 8]?
The Adjuvant index was 3.2 ± 0.09.

What about the Anti-ovalbumin antibody titer [3, 8] of the same compound?
Its Anti-ovalbumin antibody titer is 19200.

What about the Adjuvant index [3, 9] of the same compound?
Its Adjuvant index is 4.2 ± 0.05.

And the Anti-ovalbumin antibody titer [3, 9]?
The Anti-ovalbumin antibody titer was 25200.

And the “adjuvant activity (in words)” value ([3]; ovalbumin in mice)?
The value was “adjuvant active”.

What does the source list for “RV-peptide: 14-mer, RN-peptide truncated from C-terminus (SEQ ID NO: 8) (RVPPRYHAKISPMV)”?
Adjuvant index [3, 6]: 6.3 ± 0.06; Anti-ovalbumin antibody titer [3, 6]: 37800 ± 350; Adjuvant index [3, 8]: 1.4 ± 0.04; Anti-ovalbumin antibody titer [3, 8]: 8400 ± 240; Adjuvant index [3, 9]: 0.8 ± 0.03; Anti-ovalbumin antibody titer [3, 9]: 4800 ± 180

With “VN-peptide: 14-mer, RN-peptide truncated from N-terminus (SEQ ID NO: 11) (VPPRYHAKISPMVN)” as the compound, how does the Adjuvant index [3, 6] read?
Its Adjuvant index is 0.9 ± 0.03.

What about the Anti-ovalbumin antibody titer [3, 6] of the same compound?
Its Anti-ovalbumin antibody titer is 5400 ± 200.

And the Adjuvant index [3, 8]?
Its Adjuvant index is 1.4 ± 0.04.

What about the Anti-ovalbumin antibody titer [3, 8] of the same compound?
Its Anti-ovalbumin antibody titer is 8400 ± 230.

What about the Adjuvant index [3, 9] of the same compound?
The Adjuvant index was 0.7 ± 0.03.

What about the Anti-ovalbumin antibody titer [3, 9] of the same compound?
The Anti-ovalbumin antibody titer was 4200 ± 150.
